One test addresses T1, Wee1 kinase (Homo sapiens, UniProt P30291).
T1 construct: made in house; host or cells: Sf9 insect cells (recombinant baculovirus)
Description: Wee1 kinase-inhibitory effect (33P-ATP filter assay with GST-tagged Wee1). It is filed as biochemical. Conditions: purified GST-Wee1, Poly(Lys,Tyr) substrate, 10 μM ATP, 30° C. for 30 minutes; read-out: Weel-Inhibitory Effect (IC50). The source says: Pharmacological Test 1 (Wee1 Kinase-Inhibitory Effect)
(1) Purification of Wee1 Kinase:
A cDNA of Wee1 kinase with glutathion-S-transferase (GST) fused at the amino terminal thereof was inserted into a baculovirus expression vector to construct a recombinant baculovirus, with which cells of an insect cell line Sf9 were infected for high expression therein. The infected cells were collected and solubilized, and then the GST-tagged Wee1 kinase protein was adsorbed by a glutathion column, and eluted from the column with glutathion, and the active fraction was desalted in a desalting column to give a purified enzyme.
(2) Determination of Wee1 Kinase Activity:
In determination of the Wee1 kinase activity, a synthetic peptide, Poly(Lys,Tyr) Hydrobromide (Lys:Tyr (4:1)) bought from Sigma was used as the substrate.
The amount of the reaction liquid was 21.1 μL; and the composition of the reaction buffer was 50 mM Tris-HCl buffer (pH 7.4)/10 mM magnesium chloride/1 mM dithiothreitol. The purified Wee1 kinase, 2.5 μg of the substrate peptide, 10 μM of non-labeled adenosine triphosphate (ATP) and 1 μCi of [γ-^33P]-labeled ATP (2500 Ci/mmol or more) were added to it, and reacted at 30° C. for 30 minutes. Next, 10 μL of 350 mM phosphate buffer was added to the reaction system to stop the reaction. The substrate peptide was adsorbed by a P81 paper filter 96-well plate, then washed a few times with 130 mM phosphate buffer, and its radioactivity was counted with a liquid scintillation counter. The [γ-^33P]-labeled ATP was bought from Amersham Bioscience.
To add a test compound to the reaction system, the compound was diluted with dimethyl sulfoxide (DMSO) to prepare a series of dilutions. 1.1 μL of each dilution was added to the reaction system. As a control, 1.1 μL of DMSO was added to the reaction system.

Test [1] deals with Cdc2 (Cdk1) tyrosine 15 phosphorylation in WiDr cells. Description: Cdc2 (Cdk1) tyrosine 15-phosphorylation-inhibitory effect in WiDr cells, gemcitabine-treated (ELISA). It is filed as cell-based. The conditions noted are these: Homo sapiens, 100 nM gemcitabine 24 hours, then test compound with nocodazole 8 hours, read-out: Cdc2-Y15 Phosphorylation-Inhibitory Effect (WiDr, +gemcitabine) (EC50). An excerpt: Pharmacological Test 2 (Method of Determining Drug Potency with Cells (Cdc2 (Cdk1) Tyrosine 15-Phosphorylation-Inhibitory Effect))
Fetal bovine serum (FBS) was gotten from Morgate; media RPMI1640 and DMEM were from Invitrogen; camptothecin was from Sigma; gemcitabine was from Nippon Eli Lilly; nocodazole and protease inhibitor cocktail were from Sigma; rabbit anti-Cdc2 antibody and mouse anti-Cdc2 antibody were from Santa Cruz Biotechnology; rabbit anti-tyrosine 15-phosphorylated Cdc2 antibody and horseradish peroxidase-labeled anti-mouse IgG antibody were from Cell Signaling Technology; sure blue reserve TMB peroxidase substrate was from Kirkegaard and Perry Laboratories.
Human non-small cell lung cancer cells (NCI-H1299) and human colon cancer cells (WiDr) were gotten from American Type Culture Collection (ATCC).
In the method of using WiDr cells, the cells were suspended in a medium of 10% FBS-added DMEM, and the cell suspension was applied to a 96-well Nunclondelta-processed plastic plate in an amount of 2000 cells/100 μL/well, in which the cells were incubated overnight in 5% CO2-95% air at 37° C. Gemcitabine was dissolved in PBS, and diluted with a medium of 10% FBS-added DMEM, and then this was applied to the plate on which the cells had been previously sowed, in an amount of 50 μL/well in such a manner that the final concentration of gemcitabine could be 100 nM. Then, the cells were incubated for 24 hours at 37° C. in 5% CO2-95% air. A test compound was stepwise diluted with DMSO, then diluted with 1200 nM nocodazole-containing, 10% FBS-added DMEM, and applied to the plate on which the […] cells had been sowed, in an amount of 50 μL/well. The cells were incubated for 8 hours at 37° C. in 5% CO2-95% air, then the culture was removed, and a cytolytic buffer was added to the plate in an amount of 100 μL/well, shaken at 4° C. for 2 hours, then frozen at −80° C., and thawed to give a cell solution. […] Cdc2 was determined through ELISA as follows: A rabbit anti-Cdc2 antibody solution, which had been diluted 200-fold with 50 mM carbonate-bicarbonate buffer (pH 9.6), was applied to a 96-well maxisorp plastic plate in an amount of 50 μL/well, and statically kept overnight at 4° C. so as to fix the antibody on the plate. […] Then, 1 M hydrochloric acid was added to it in an amount of 100 μL/well to stop the reaction, and this was analyzed through colorimetry. Tyrosine 15-phosphorylated Cdc2 was determined through ELISA as follows: A rabbit anti-tyrosine 15-phosphorylated Cdc2 antibody solution, which had been diluted 100-fold with 50 mM carbonate-bicarbonate buffer (pH 9.6), was applied to a 96-well maxisorp plastic plate in an amount of 50 μL/well, and statically kept overnight at 4° C. so as to fix the antibody on the plate. […]
For orientation: In an ELISA, binding on a coated surface is turned into a signal by an enzyme label.

Usually IC50 stands for the midpoint of a concentration-inhibition curve. By EC50 is commonly meant the concentration needed to bring the measured effect to its halfway point.

T1 sequence (P30291 whole entry): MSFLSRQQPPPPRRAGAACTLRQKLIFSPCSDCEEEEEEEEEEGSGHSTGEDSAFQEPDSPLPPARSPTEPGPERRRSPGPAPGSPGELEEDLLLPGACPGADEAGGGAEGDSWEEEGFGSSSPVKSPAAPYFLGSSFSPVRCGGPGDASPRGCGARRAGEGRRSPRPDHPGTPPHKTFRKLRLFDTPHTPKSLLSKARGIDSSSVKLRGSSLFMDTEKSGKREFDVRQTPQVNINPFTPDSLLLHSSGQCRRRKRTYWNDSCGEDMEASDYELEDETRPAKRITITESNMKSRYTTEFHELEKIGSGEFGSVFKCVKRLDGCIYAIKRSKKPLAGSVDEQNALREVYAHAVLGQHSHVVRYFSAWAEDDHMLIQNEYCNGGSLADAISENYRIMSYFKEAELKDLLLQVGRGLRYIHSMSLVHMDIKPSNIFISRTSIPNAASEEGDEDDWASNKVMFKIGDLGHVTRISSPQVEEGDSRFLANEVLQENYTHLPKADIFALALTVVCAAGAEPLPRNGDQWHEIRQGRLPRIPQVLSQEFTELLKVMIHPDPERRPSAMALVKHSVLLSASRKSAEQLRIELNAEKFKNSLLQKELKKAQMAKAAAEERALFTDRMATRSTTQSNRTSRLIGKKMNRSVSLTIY

On to `C=CCn1c(=O)c2cnc(Nc3ccc(N4CC[C@@H](N(C)C)C4)cc3)nc2n1-c1cccc(-n2ccccc2=O)n1` [Example 2, 6′-[2-allyl-6-({4-[(3R)-3-(dimethylamino)pyrrolidin-1-yl]phenyl}amino)-3-oxo-2,3-dihydro-1H-pyrazolo[3,4-d]pyrimidin-1-yl]-2H-1,2′-bipyridin-2-one], for which the concentration for half-maximal inhibition (IC50) at Wee1 kinase came out at 18 nM. Further, the half-maximal effective concentration (EC50) in test [1] came to 110 nM. For the compound `C=CCn1c(=O)c2cnc(Nc3ccc(N4CC[C@H](N(C)C)C4)cc3)nc2n1-c1cccc(-n2ccccc2=O)n1` [Example 3, 6′-[2-allyl-6-({4-[(3S)-3-(dimethylamino)pyrrolidin-1-yl]phenyl}amino)-3-oxo-2,3-dihydro-1H-pyrazolo[3,4-d]pyrimidin-1-yl]-2H-1,2′-bipyridin-2-one], the 50% inhibitory concentration (IC50) at Wee1 kinase turned out to be 16 nM. As for `C=CCn1c(=O)c2cnc(Nc3ccc(N4CCN(C)CC4)cc3)nc2n1-c1cc(F)cc(-n2ccccc2=O)c1` [Example 4, 2-allyl-1-[3-fluoro-5-(2-oxopyridin-1(2H)-yl)phenyl]-6-{[4-(4-methylpiperazin-1-yl)phenyl]amino}-1,2-dihydro-3H-pyrazolo[3,4-d]pyrimidin-3-one], at Wee1 kinase, the half-maximal inhibitory concentration (IC50) is 7.2 nM. In addition, the concentration giving a half-maximal response (EC50) in test [1] turned out to be 86 nM. For `C=CCn1c(=O)c2cnc(Nc3ccc(C4CCN(C)CC4)cc3)nc2n1-c1cccc(-n2ccccc2=O)c1` [Example 8], in that order: 24 nM and 170 nM. Take `C=CCn1c(=O)c2cnc(Nc3ccc(C4CCN(C)CC4)cc3)nc2n1-c1cccc(-n2ccccc2=O)n1` [Example 9, 6′-(2-Allyl-6-{[4-(1-methylpiperidin-4-yl)phenyl]amino}-3-oxo-2,3-dihydro-1H-pyrazolo[3,4-d]pyrimidin-1-yl)-2H-1,2′-bipyridin-2-one]: the half-inhibitory concentration (IC50) at Wee1 kinase worked out at 11 nM. Regarding `C=CCn1c(=O)c2cnc(Nc3ccc(N4CCN(C)CC4)c(C)c3)nc2n1-c1cccc(-n2ccccc2=O)n1` [Example 11, 6′-(2-Allyl-6-{[3-methyl-4-(4-methylpiperazin-1-yl)phenyl]amino}-3-oxo-2,3-dihydro-1H-pyrazolo[3,4-d]pyrimidin-1-yl)-2H-1,2′-bipyridin-2-one], the concentration for half-maximal inhibition (IC50) on Wee1 kinase came to 10 nM. Further, the EC50 in test [1] was 92 nM. Turning to `C=CCn1c(=O)c2cnc(Nc3ccc(N4CC(F)(F)C4)cc3)nc2n1-c1cccc(-n2ccccc2=O)n1` [Example 17, 6′-(2-Allyl-6-{[4-(3,3-difluoroazetidin-1-yl)phenyl]amino}-3-oxo-2,3-dihydro-1H-pyrazolo[3,4-d]pyrimidin-1-yl)-2H-1,2′-bipyridin-2-one], the half-maximal inhibitory concentration (IC50) at Wee1 kinase was 6.9 nM. The same measure, in the same setting: the value for `C=CCn1c(=O)c2cnc(Nc3cccc(C4CCN(C)CC4)c3)nc2n1-c1cccc(-n2ccccc2=O)n1` [Example 27, 6′-(2-Allyl-6-{[3-(1-methylpiperizin-4-yl)phenyl]amino}-3-oxo-2,3-dihydro-1H-pyrazolo[3,4-d]pyrimidin-1-yl)-2H-1,2′-bipyridin-2-one] was 6.9 nM; that for `C=CCn1c(=O)c2cnc(Nc3ccc(OC)c(CO)c3)nc2n1-c1cccc(-n2ccccc2=O)n1` [Example 29, 6′-(2-Allyl-6-{[3-(hydroxymethyl)-4-methoxyphenyl]amino}-3-oxo-2,3-dihydro-1H-pyrazolo[3,4-d]pyrimidin-1-yl)-2H-1,2′-bipyridin-2-one] was 6.5 nM.

Consider `CN1Cc2cc(Nc3ncc4c(=O)n(C)n(-c5cccc(-n6ccccc6=O)n5)c4n3)ccc2C2(CC2)C1` [Example 38, 6′-{2-Methyl-6-[(2′-methyl-2′,3′-dihydro-1′H-spiro[cyclopropane-1,4′-isoquinolin]-7′-yl)amino]-3-oxo-2,3-dihydro-1H-pyrazolo[3,4-d]pyrimidin-1-yl}-2H-1,2′-bipyridin-2-one], for which the IC50 on Wee1 kinase worked out at 12.6 nM. On the same count and under the same terms, the value for `CC(C)n1c(=O)c2cnc(Nc3ccc4c(c3)CN(C)CC43CC3)nc2n1-c1cccc(-n2ccccc2=O)n1` [Example 39, 6′-{2-Isopropyl-6-[(2′-methyl-2′,3′-dihydro-1′H-spiro[cyclopropane-1,4′-isoquinolin]-7′-yl)amino)-3-oxo-2,3-dihydro-1H-pyrazolo[3,4-d]pyrimidin-1-yl]-2H-1,2′-bipyridin-2-one] was 20.6 nM.

As to `C#CCn1c(=O)c2cnc(Nc3ccc4c(c3)CN(C)CC4)nc2n1-c1cccc(-n2ccccc2=O)n1` [Example 42, 6′-{6-[(2-Methyl-1,2,3,4-tetrahydroisoquinolin-7-yl)amino]-3-oxo-2-(2-propynyl)-2,3-dihydro-1H-pyrazolo[3,4-d]pyrimidin-1-yl}-2H-1,2′-bipyridin-2-one], the half-maximal inhibitory concentration (IC50) on Wee1 kinase turned out to be 4.4 nM.

The record behind these values is patent US8329711B2, “Pyridone-substituted-dihydropyrazolopyrimidinone derivative” (MSD K.K., priority 2007, dated 2012).
